Source: patent publication US20230277564A1, “CANNABINOIDAL COMPOSITIONS FOR THE TREATMENT OF DISEASE” (The State of Israel, Ministry of Agriculture & Rural …, priority 2020, published 2023)

Key:
Format in all cases: cell-based
[1] = test system: IL-8; test: qPCR of IL-8 mRNA in PMA-treated KG1 cells (differentiated macrophages); conditions: 6 hours, FCBD and FCBD:std 7 μg/mL, Dex 8 μg/mL, relative to control
Procedure: (§1) Cell cultures—The lung cancer cell line A549 (ATCC® CCL-185™) was cultured in DMEM (01-055-1A, Biological Industries, Israel) growth media supplemented with 10% FBS (04-127-1A, Biological Industries, Israel), 1% […], 1% pen-strep and plasmocin. Macrophage cell line KG1 (ATCC® CCL-246™) was cultured in IMDM (01-058-1A; Biological Industries, Israel) containing 20% FBS and 1% pen-strep and plasmocin. IMDM media supplemented with 10 ng/mL PMA, 5% FBS, 1% pen-strep and plasmocin was used as stimulating environment for the differentiation of KG1 cells. Differentiated cells with typical morphology were attached to the plate surface within 1-2 days of initiation^39.
(§2) Quantitative real-time (qRT) PCR—qRT PCR was effected as described^38. Briefly, cells were seeded in a 6-well plate at a concentration of 1.5×10^6 cells in 3 mL per well. Following 24 hours incubation, cells were treated with extract/fraction/compounds for 6 hours. Cells were harvested and RNA was extracted using TRI reagent (T9424, Sigma Aldrich, USA). RNA was reverse-transcribed in a total volume of 20 μL (PB30.11-10; qPCRBIO), according to manufacturer's protocol. PCR was performed in triplicate using qPCR SyGreen Blue Mix (PB20.16-20, qPCRBIO) and a StepOnePlus system (Applied Biosystems). […]

[2] = test system: CCL2; test: qPCR of CCL2 mRNA in PMA-treated KG1 cells (differentiated macrophages); conditions: 6 hours, FCBD and FCBD:std 7 μg/mL, Dex 8 μg/mL, relative to control
Procedure: as §1, §2

[3] = test system: IL-6; test: qPCR of IL-6 mRNA in PMA-treated KG1 cells (differentiated macrophages); conditions: 6 hours, FCBD and FCBD:std 7 μg/mL, Dex 8 μg/mL, relative to control
Procedure: as §1, §2

[4] = test system: IL-8 secreted from KG1 cells; test: IL-8 secretion from KG1 cells treated with TNFα (ELISA); conditions: 300 ng/mL TNFα, 4 hours, FCBD or FCBD:std 10 μg/mL or indicated concentrations, Dex 4 μg/mL
Procedure: as §1
Determination of IL levels and cell viability—IL-6 and IL-8 levels were determined as described previously^40 with the following modifications: A549 cells were plated at 5×10^4 cells per well in DMEM complete media (400 μL) in a 24-well cell culture plate. Cells were allowed to attach and incubated with complete DMEM at 37° C. in a humidified atmosphere containing 5% CO2-95% air. […] IL-6 and IL-8 secretion levels were analyzed after 4 hours of incubation. […] GraphPad Prism (GraphPad Software Inc., San Diego, USA) was employed to produce dose-response curves and IC50 doses were calculated using nonlinear regression analysis.

[5] = test system: IL-8 secreted from A549 cells; test: IL-8 secretion from TNFα-treated A549 cells (ELISA); conditions: for IL-8 secretion: at the concentration and ratio found in 10 μg/ml FCBD:std
Procedure: as §1
(§3) Determination of IL levels and cell viability—IL-6 and IL-8 levels were determined as described previously^40 with the following modifications: A549 cells were plated at 5×10^4 cells per well in DMEM complete media (400 μL) in a 24-well cell culture plate. Cells were allowed to attach and incubated with complete DMEM at 37° C. in a humidified atmosphere containing 5% CO2-95% air. Following overnight incubation, cells were treated with 300 ng/mL TNFα with or without plant extract or fraction/compounds. IL-6 and IL-8 secretion levels were analyzed after 4 hours of incubation. Supernatant samples were taken and tested using IL-6 and IL-8 ELISA kits (DY206 and DY208 respectively, R&D Systems, Minneapolis, Minn., USA). Dexamethasone was used as a positive control. For cell viability, an Alamar Blue (resazurin) assay was performed on each well as described previously^40. For dose response assays, data points were connected by non-linear regression lines of the sigmoidal dose-response relation. GraphPad Prism (GraphPad Software Inc., San Diego, USA) was employed to produce dose-response curves and IC50 doses were calculated using nonlinear regression analysis.

[6] = test system: IL-6 secreted from A549 cells; test: IL-6 secretion from TNFα-treated A549 cells (ELISA); conditions: for IL-6 secretion: at the concentration and ratio found in 10 μg/ml FCBD:std
Procedure: as §1, §3

[7] = test system: CD36; test: qPCR of CD36 mRNA in PMA-treated KG1 cells; conditions: FCBD and FCBD:std 7 μg/mL, Palmitic acid 150 μM, versus vehicle control
Procedure: as §1, §2

[8] = higher or lower concentrations of CBD than 3.0 μg/mL

Compound: C[C@@H]1C[C@H]2[C@@H]3CCC4=CC(=O)C=C[C@]4(C)[C@@]3(F)[C@@H](O)C[C@]2(C)[C@@]1(O)C(=O)CO [dexamethasone, Dexamethasone]
- increase of IL-8 mRNA expression level [1]: no effect
- increase of CCL2 mRNA expression level [2]: no effect
- increase of IL-6 mRNA expression level [3]: no effect
- IL-8 secretion from KG1 cells [4]: no effect

Compound: Cc1c(C(=O)NN2CCCCC2)nn(-c2ccc(Cl)cc2Cl)c1-c1ccc(I)cc1 [CB1 IA]
- IL-8 levels, inverse agonist alone ([5]; treatment with IA only): reduction
- IL-6 levels, inverse agonist alone ([6]; treatment with IA only): reduction

Compound: C=C(C)[C@@H]1CCC(C)=C[C@H]1c1c(O)cc(CCCCC)cc1O [CBD, cannabidiol]
- IL-8 levels, anti-inflammatory activity ([5]; CBD alone at 3.0 μg/mL): showed anti-inflammatory activity
- IL-8 secretion [5]: did not lead to such a reduction
- activity in reducing IL-8 levels [5, 8]: lower and/or non-significant activity
- IL-6 levels, anti-inflammatory activity ([6]; CBD alone at 3.0 μg/mL): showed anti-inflammatory activity
- IL-6 secretion [6]: did not lead to such a reduction
- activity in reducing IL-6 levels [6, 8]: lower and/or non-significant activity

Compound: CCCCCc1cc(O)c(C/C=C(\C)CCC=C(C)C)c(O)c1 [CBG, cannabigerol]
- IL-8 secretion [5]: did not lead to such a reduction
- IL-6 secretion [6]: did not lead to such a reduction

Compound: CCCc1cc(O)c2c(c1)OC(C)(C)[C@@H]1CCC(C)=C[C@@H]21 [THCV, tetrahydrocannabivarin]
- IL-8 secretion [5]: did not lead to such a reduction
- IL-6 secretion [6]: did not lead to such a reduction

Compound: CCCCCCCCCCCCCCCC(=O)O [PA, Palmitic acid]
- mRNA expression of CD36 [7]: reduced
